Patent US6121323A, “Bishydroxyureas” (3M Innovative Properties Company, priority 1997, dated 2000)

Columns and labels:
[1] = test system: Leukotriene B4 production in whole human blood; assay: In vitro human whole blood Leukotriene B4 inhibition; type: cell-based; details: A23187 stimulated, read-out: IC50 (concentration producing 50% inhibition of LTB4 production)
Description: IN VITRO HUMAN WHOLE BLOOD LEUKOTRIENE B4 INHIBITION
The test method described below measures the ability of compounds to inhibit the production of Leukotriene B4 in whole human blood.
Whole human blood is collected by venipuncture into a 60 cc syringe containing 100 units of heparin.
compounds are disolved in dimethyl sulfoxide. Compounds are tested at concentrations of 100, 33, 11, 3.7, 1.2 and 0.41 μM. Each concentration is tested in duplicate.
Aliquots (1 μL) of compound solution are added to 1 mL polyethylene tubes followed by the addition of 500 μL portion of heparinized blood. The tubes are mixed thoroughly then allowed to preincubate at ambient temperature for 15 minutes. A 25 μL portion of 1 mM Calcium Ionophore A23187 in dimethyl sulfoxide/Tris buffer is added to the tubes. The tubes are mixed thoroughly then incubated at 37° C. for 30 minutes.
The tubes are centrifuged at 2000 rpm for 10 minutes. 100 μL portions of plasma are transferred to 1 mL polyethylene tubes containing 400 μL portions of methanol. The tubes are vortexed then frozen at -20° C. overnight.
The tubes are centrifuged for 10 minutes then 100 μL portions of methanol supernatant are transferred to a 96 well microtiter plate. 10 μL portions are transferred from this plate to a 96 well assay plate. Methanol dilutions of LTB4 standard curve are added to the assay plate. 10 μL portions of blank methanol/plasma supernatant are added to each standard curve well. The assay plate is vacuum dried at ambient temperature. The radioimmunoassay buffer is added, the plate is bath-sonicated for 5 minutes then assayed according to the manufacturer's instructions (Advanced Magnetics; Cambridge, Mass.). Inhibition of LTB4 production is calculated as the ratio of the amount of LTB4 formed in the presence (LTB4 +cpd) and absence (LTB4 no cpd) of compound according the equation below. [formula] IC50 values (concentration of compound producing a 50% inhibition of LTB4 production) are calculated by linear regression analysis of percentage inhibition versus log compound concentration plots.

[2] = test system: Leukotriene C4 production in mouse peritoneal macrophages; assay: In vitro mouse peritoneal macrophage Leukotriene C4 inhibition; type: cell-based; details: zymosan stimulated, read-out: Percent Inhibition
Description: IN VITRO MOUSE PERITONEAL MACROPHAGE LEUKOTRIENE C4 INHIBITION
The test described below measures the ability of compounds to inhibit the production of Leukotriene C4 in mouse peritoneal macrophages.
Mice (female, CD-1, weighing 25 g) are euthanized by exposure to carbon dioxide. The pertoneal cavity is exposed by peeling back the abdominal skin. A 5 mL portion of media (M199 containing 1% fetal bovine serum, 100 units/mL of penicillin, 100 μg/mL streptomycin, 20 units/mL of heparin and no glutamine) is injected into the exposed peritoneal cavity of each mouse. The lavage fluid is removed and pooled to yield proximately 1×10^6 macrophages/mL. A 2 mL portion of lavage fluid is added to each well of a 24 well sterile multidish and the marcophages are allowed to adhere to the plate for 2 hours at 37° C. in a 5% carbon dioxide atmosphere. The media is removed and each well is washed with 2 mL of phosphate buffered saline (PBS). A 1 mL portion of media, without heparin, but containing 5 μCi/mL of 3H-myoinositol is added to each well and the plates are incubated overnight at 37° C. in a 5% carbon dioxide atmosphere. The media is removed and the cells are washed twice with 2 mL portions of PBS. A 1 mL portion of Puck's saline formulation A containing 1 mM calcium chloride, 1 mM magnesium chloride and 10 mM lithium chloride is added to each well. (The Puck's formulation is made first as a 10× solution which contains 4 g of potassium chloride, 80 g of sodium chloride and 10 g of glucose per liter. The Puck's saline formulation A is made using 10 mL of the 10× Puck's formulation, 0.47 mL of 7.5% sodium bicarbonate and 2 mL of 1M N-2-hydroxyethylpiperazine-N'-2-ethanesulfonic acid per 100 mL.)
Compounds are dissolved in dimethyl sulfoxide. Compounds are tested at concentrations of 10, 1 and 0.1 μM. Each concentration is tested in duplicate.
A 1 μL portion of compound solution or vehicle (DMSO) is added to each well and the plates are incubated for 15 minutes at 37° C. in a 5% carbon dioxide atmosphere. Zymosan is then added to provide a final concentration of 50 μg/mL in each well and the plate is incubated for 1 to 2 hours at 37° C. in a 5% carbon dioxide atmosphere.
Following incubation 200 μL portions of media are transferred to 12×75 mm tubes. The tubes are either assayed immediately or stored at -20° C. until they can be assayed.
The media is assayed for the presence of Leukotriene C4 by radioimmunoassay which is performed according to the manufacturer's instructions (Advanced Magnetics; Cambridge, Mass.). Inhibition of LTC4 production is calculated as the ratio of the amount of LTC4 formed in the presence (LTC4 +cpd) and absence (LTC4 no cpd)of compound according to the equation below. [formula] IC50 values (concentration of compound producing a 50% inhibition of LTC4 production) are calculated by linear regression analysis of percentage inhibition versus log compound concentration plots.

[3] = test system: Leukotriene B4 production in rat blood; assay: Rat ex vivo Leukotriene B4 inhibition; type: in vivo; details: 2 hours post dose, ex vivo A23187 challenge; for inhibition in vivo at 50 mg/kg: 50 mg/Kg oral
Description: RAT EX VIVO LEUKOTRIENE B4 INHIBITION
The test method described below measures the ability of a compound when administrated orally to rats to inhibit the production of Leukotriene B4 in their blood which is drawn and challenged.
Rats (CD, male, non-fasted, 250 g) are lightly anesthetized with carbon dioxide and an approximately 0.75 mL sample of whole blood is obtained via cardiac puncture. The sample is dispensed into 12×75 mm polypropylene tubes containing 8-10 μL of 10,000 units/mL heparin, mixed and then maintained on ice. The rats are allowed to recover approximately one hour then dosed orally with compound dissolved in PEG 400 at a 5 mL/Kg volume. Five (5) rats are utilized per group. Two (2) hours post dose the rats are again anesthetized with carbon dioxide and the blood sampled again via cardiac puncture.
Duplicate 200 μL portions of blood are added to 1.0 mL polypropylene tubes. A 10 μL portion of 1 mM A23 187 Calcium Ionophore in dimethyl sulfoxide/Tris buffer is added to each tube. The tubes are gently vortexed then incubated in a 37° C. water bath for 30 minutes. The tubes are then centrifuged at 4000 rpm for 10 minutes. 50 μL portions of plasma are transferred to 1.0 mL tubes containing 200 μL of methanol. The tubes are vortexed then placed in the freezer overnight.
The tubes are removed from the freezer then centrifuged at 4000 rpm for 10 minutes. 20 μL portions of the methanol/plasma supernatant and 10 μl methanol dilutions of LTB4 standard are transferred to 96 well v-bottom microtiter plates. The plates are vacuum dried at 40° C. A 40 μL portion of LTB4 radioimmunoassay buffer is added to each well. The plate is bath sonicated for 5 minutes then assayed according to the manufacturer's instructions (Advanced Magnetics; Cambridge, Mass.). Percent inhibition values are obtained by comparing the level of LTB4 in the post-dose samples to the level in the pre-dose samples according to the equation below. [formula]

Row | IC50 [1] [nM] | Structure (SMILES) | inhibition at 0.1 µM [2] [%] | inhibition at 1 µM [2] [%] | inhibition at 10 µM [2] [%] | inhibition in vivo at 10 mg/kg ([3]; 10 mg/Kg oral) [%] | inhibition in vivo at 50 mg/kg [3] [%]
1 | 550 | CN(O)C(=O)Nc1ccc(Cc2ccc(NC(=O)N(C)O)cc2)cc1 [Example 1, 4,4'-Methylenebis(1-hydroxy-1-methyl-3-phenylurea)] | 61 | 95 | 100 | 16 | 93
2 | 1700 | CC(C)N(O)C(=O)Nc1ccc(Cc2ccc(NC(=O)N(O)C(C)C)cc2)cc1 [Example 2, 4,4'-Methylenebis(1-hydroxy-1-isopropyl-3-phenylurea)] | 32 | 55 | 54 | – | 34
3 | – | CCC(CC)N(O)C(=O)Nc1ccc(Cc2ccc(NC(=O)N(O)C(CC)CC)cc2)cc1 [Example 12, 4,4'-Methylenebis(1-hydroxy-1-(1-ethylpropyl)-3-phenylurea)] | 83 | 93 | 100 | – | 15
4 | 320 | O=C(Nc1ccc(Cc2ccc(NC(=O)N(O)Cc3ccccc3)cc2)cc1)N(O)Cc1ccccc1 [Example 3, 4,4'-Methylenebis(1-hydroxy-1-benzyl-3-phenylurea)] | 25 | 56 | 74 | – | 6
